Assay results from the NIST ThermoML archive (doi:10.1021/je900600c).
± gives the expanded uncertainty stated by the source.

Assay: xn = mol fraction of the nth substance listed
Settings: 101 kPa, Liquid; for electrical conductivity: Frequency=0.0005 MHz, crison conductivimeter

Structure (SMILES): CCCCn1cc[n+](C)c1.F[B-](F)(F)F [1-butyl-3-methylimidazolium tetrafluoroborate] + O
- electrical conductivity (288.15 K, x2 = 0.4954): 1.4 ± 0.14 S/m
- viscosity (288.15 K, x2 = 0): 173.5 ± 47 mPa·s
- viscosity (288.15 K, x2 = 0.0476): 134.1 ± 29 mPa·s
- viscosity (288.15 K, x2 = 0.1091): 108.4 ± 18 mPa·s
- viscosity (288.15 K, x2 = 0.143): 89.3 ± 11 mPa·s
- viscosity (288.15 K, x2 = 0.2389): 58.2 ± 2 mPa·s
- viscosity (288.15 K, x2 = 0.3078): 45.6 ± 2.3 mPa·s
- viscosity (288.15 K, x2 = 0.4): 32.5 ± 1.7 mPa·s
- viscosity (288.15 K, x2 = 0.5054): 21.1 ± 1.1 mPa·s
- viscosity (288.15 K, x2 = 0.6266): 13.77 ± 0.75 mPa·s
- viscosity (288.15 K, x2 = 0.6992): 9.78 ± 0.55 mPa·s
- viscosity (288.15 K, x2 = 0.7981): 6.69 ± 0.39 mPa·s
- viscosity (288.15 K, x2 = 0.9032): 3.83 ± 0.25 mPa·s
- electrical conductivity (298.15 K, x2 = 0): 0.352 ± 0.035 S/m
- electrical conductivity (298.15 K, x2 = 0.2235): 0.785 ± 0.08 S/m
- electrical conductivity (298.15 K, x2 = 0.3705): 1.3 ± 0.13 S/m
- electrical conductivity (298.15 K, x2 = 0.4835): 1.86 ± 0.19 S/m
- electrical conductivity (298.15 K, x2 = 0.4954): 2.02 ± 0.2 S/m
- electrical conductivity (298.15 K, x2 = 0.6173): 2.75 ± 0.28 S/m
- electrical conductivity (298.15 K, x2 = 0.7167): 3.64 ± 0.36 S/m
- electrical conductivity (298.15 K, x2 = 0.777): 4.2 ± 0.42 S/m
- electrical conductivity (298.15 K, x2 = 0.8168): 4.55 ± 0.46 S/m
- electrical conductivity (298.15 K, x2 = 0.8458): 4.84 ± 0.48 S/m
- electrical conductivity (298.15 K, x2 = 0.8684): 5 ± 0.5 S/m
- electrical conductivity (298.15 K, x2 = 0.8879): 5.08 ± 0.51 S/m
- electrical conductivity (298.15 K, x2 = 0.9031): 5.09 ± 0.51 S/m
- electrical conductivity (298.15 K, x2 = 0.9151): 5.08 ± 0.51 S/m
- electrical conductivity (298.15 K, x2 = 0.9245): 5.05 ± 0.51 S/m
- electrical conductivity (298.15 K, x2 = 0.9322): 4.98 ± 0.5 S/m
- electrical conductivity (298.15 K, x2 = 0.9396): 4.84 ± 0.49 S/m
- electrical conductivity (298.15 K, x2 = 0.9457): 4.81 ± 0.48 S/m
- electrical conductivity (298.15 K, x2 = 0.952): 4.73 ± 0.48 S/m
- electrical conductivity (298.15 K, x2 = 0.9572): 4.65 ± 0.48 S/m
- electrical conductivity (298.15 K, x2 = 0.9615): 4.54 ± 0.48 S/m
- electrical conductivity (298.15 K, x2 = 0.9654): 4.41 ± 0.48 S/m
- electrical conductivity (298.15 K, x2 = 0.9713): 4.15 ± 0.41 S/m
- electrical conductivity (298.15 K, x2 = 0.9801): 3.64 ± 0.36 S/m
- electrical conductivity (298.15 K, x2 = 0.9861): 3.14 ± 0.31 S/m
- electrical conductivity (298.15 K, x2 = 0.9896): 2.68 ± 0.27 S/m
- electrical conductivity (298.15 K, x2 = 0.993): 2.11 ± 0.21 S/m
- electrical conductivity (298.15 K, x2 = 0.9951): 1.64 ± 0.16 S/m
- electrical conductivity (298.15 K, x2 = 0.9961): 1.43 ± 0.14 S/m
- electrical conductivity (298.15 K, x2 = 0.9974): 1.05 ± 0.1 S/m
- electrical conductivity (298.15 K, x2 = 0.9982): 0.788 ± 0.079 S/m
- electrical conductivity (298.15 K, x2 = 0.999): 0.475 ± 0.048 S/m
- electrical conductivity (298.15 K, x2 = 0.9996): 0.2 ± 0.02 S/m
- viscosity (298.15 K, x2 = 0): 99.2 ± 15 mPa·s
- viscosity (298.15 K, x2 = 0.0476): 78.7 ± 7.8 mPa·s
- viscosity (298.15 K, x2 = 0.1091): 65.6 ± 3.9 mPa·s
- viscosity (298.15 K, x2 = 0.143): 55.1 ± 1.2 mPa·s
- viscosity (298.15 K, x2 = 0.2389): 37.7 ± 1.9 mPa·s
- viscosity (298.15 K, x2 = 0.3078): 30.2 ± 1.6 mPa·s
- viscosity (298.15 K, x2 = 0.4): 22.1 ± 1.2 mPa·s
- viscosity (298.15 K, x2 = 0.5054): 14.72 ± 0.79 mPa·s
- viscosity (298.15 K, x2 = 0.6266): 9.82 ± 0.55 mPa·s
- viscosity (298.15 K, x2 = 0.6992): 7.07 ± 0.41 mPa·s
- viscosity (298.15 K, x2 = 0.7981): 4.89 ± 0.3 mPa·s
- viscosity (298.15 K, x2 = 0.9032): 2.79 ± 0.2 mPa·s
- electrical conductivity (308.15 K, x2 = 0.4954): 2.61 ± 0.26 S/m
- viscosity (308.15 K, x2 = 0): 61.3 ± 2.8 mPa·s
- viscosity (308.15 K, x2 = 0.0476): 49.8 ± 2.5 mPa·s
- viscosity (308.15 K, x2 = 0.1091): 42.4 ± 2.2 mPa·s
- viscosity (308.15 K, x2 = 0.143): 36.3 ± 1.9 mPa·s
- viscosity (308.15 K, x2 = 0.2389): 25.9 ± 1.4 mPa·s
- viscosity (308.15 K, x2 = 0.3078): 21.1 ± 1.1 mPa·s
- viscosity (308.15 K, x2 = 0.4): 15.81 ± 0.85 mPa·s
- viscosity (308.15 K, x2 = 0.5054): 10.8 ± 0.6 mPa·s
- viscosity (308.15 K, x2 = 0.6266): 7.33 ± 0.43 mPa·s
- viscosity (308.15 K, x2 = 0.6992): 5.34 ± 0.33 mPa·s
- viscosity (308.15 K, x2 = 0.7981): 3.75 ± 0.25 mPa·s
- viscosity (308.15 K, x2 = 0.9032): 2.47 ± 0.18 mPa·s
- electrical conductivity (318.15 K, x2 = 0.4954): 3.25 ± 0.33 S/m
- viscosity (318.15 K, x2 = 0): 40.4 ± 2.1 mPa·s
- viscosity (318.15 K, x2 = 0.0476): 33.5 ± 1.7 mPa·s
- viscosity (318.15 K, x2 = 0.1091): 29.1 ± 1.5 mPa·s
- viscosity (318.15 K, x2 = 0.143): 25.3 ± 1.3 mPa·s
- viscosity (318.15 K, x2 = 0.2389): 18.62 ± 0.99 mPa·s
- viscosity (318.15 K, x2 = 0.3078): 15.47 ± 0.83 mPa·s
- viscosity (318.15 K, x2 = 0.4): 11.81 ± 0.65 mPa·s
- viscosity (318.15 K, x2 = 0.5054): 8.24 ± 0.47 mPa·s
- viscosity (318.15 K, x2 = 0.6266): 5.68 ± 0.34 mPa·s
- viscosity (318.15 K, x2 = 0.6992): 4.18 ± 0.27 mPa·s
- viscosity (318.15 K, x2 = 0.7981): 2.96 ± 0.21 mPa·s
- viscosity (318.15 K, x2 = 0.9032): 1.717 ± 0.15 mPa·s
